Assay results taken from patent US20110306778A1, “CRYSTAL OF SPIROKETAL DERIVATIVES AND PROCESS FOR PREPARATION OF SPIROKETAL DERIVATIVES” (priority 2008, published 2011).

Tests used:
[1] = molecular target: T1, SGLT2 (Homo sapiens, UniProt P31639); settings: statement of Patent Document 1 (WO 2006/080421 A1); cited from earlier work
T1 sequence (P31639 1-672): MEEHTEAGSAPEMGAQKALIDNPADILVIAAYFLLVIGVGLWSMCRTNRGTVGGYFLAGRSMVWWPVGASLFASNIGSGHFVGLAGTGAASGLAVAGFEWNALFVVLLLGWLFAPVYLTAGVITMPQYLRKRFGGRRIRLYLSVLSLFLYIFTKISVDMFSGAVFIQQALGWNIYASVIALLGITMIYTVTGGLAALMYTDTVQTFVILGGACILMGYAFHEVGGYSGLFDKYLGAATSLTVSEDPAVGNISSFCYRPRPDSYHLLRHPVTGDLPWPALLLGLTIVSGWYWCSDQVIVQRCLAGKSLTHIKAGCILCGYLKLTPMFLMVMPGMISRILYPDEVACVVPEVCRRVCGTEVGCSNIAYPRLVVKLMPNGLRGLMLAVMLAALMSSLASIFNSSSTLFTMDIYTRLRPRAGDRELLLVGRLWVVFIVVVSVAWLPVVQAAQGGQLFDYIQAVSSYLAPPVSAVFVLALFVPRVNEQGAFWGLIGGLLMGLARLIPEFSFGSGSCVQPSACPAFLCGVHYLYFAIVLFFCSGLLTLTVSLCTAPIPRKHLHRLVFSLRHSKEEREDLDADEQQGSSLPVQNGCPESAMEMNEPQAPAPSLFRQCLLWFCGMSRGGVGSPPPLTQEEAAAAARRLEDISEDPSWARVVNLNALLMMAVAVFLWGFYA

[2] = Storage stability test (total amount of impurities by HPLC after storage in thermostatic chambers); assay type: physicochemical; settings: for Course of the total amounts of impurities during storage: both at 25° C. and 40° C.
Protocol: A storage stability test was carried out for monohydrate crystal and an amorphous form of the compound of Formula (XI). The monohydrate crystal of the compound of Formula (XI) was prepared according to the procedure of Example 1, Step 7. The amorphous form of the compound of Formula (XI) was obtained by the following procedure. The monohydrate crystal of the compound (15 g) was melted by heating on hot-stage, and allowed to be cooled to room temperature in a humidity-controlled desiccator (25° C./dry). The resulting solid was grinded in mortar to give a sample used as an amorphous form. The samples were stored in thermostatic chambers at 25° C. or 40° C., and the purity each of the samples was observed after 1 month, 3 months and 6 months.
The purity was determined in the following procedure. A portion each of the samples was weighed precisely (ca. 6 mg) and dissolved in a mixture of water and methanol (1:1) to be 10 mL accurately. The resulting solutions were used as sample solutions, and a portion (10 μL) each of the sample solutions was subjected to HPLC analysis. A total amount of impurities were calculated according to the following formula.
Measurement Condition of HPLC
Device: 2695 Separations Module (manufactured by Waters), 2487 Dual k Absorbance Detector (manufactured by Waters) or 996 Photodiode Array Detector (manufactured by Waters)
Column: YMC-Pack ODS-AM AM-302-3, 4.6 mm I.D.×15 cm, particle size 3 μm (manufactured by YMC)
Mobile phase: Eluent A=methanol, Eluent B=water
Gradient operation: Eluent A: 55% (15 min), Eluent A: 55% to 100% (10 min), 100% (5 min)
Detection wavelength: 220 nm
Sample cooler temperature: 5° C.
Period for measuring peak area: 30 minutes after injection
(§1) A storage stability test was carried out for co-crystal of the compound of Formula (XI) with sodium acetate according to the procedure of Test Example 2. The co-crystal of the compound of Formula (XI) with sodium acetate was prepared according to the procedure of Example 5. The samples were stored in thermostatic chambers at 25° C. or 40° C., and the purity each of the samples was observed after 1 month and 3 months. The measurement results were compared with those for the amorphous form obtained in Test Example 2.
as §1, with “potassium” for “sodium”, “6.” for “5.”

Row | Course of the total amounts of impurities during storage [2] | Total amount of impurities (%) ([2]; storage at 25° C., 0 month) | Total amount of impurities (%) ([2]; storage at 25° C., 3 month) | Total amount of impurities (%) ([2]; storage at 40° C., 0 month) | Total amount of impurities (%) ([2]; storage at 40° C., 1 month) | Total amount of impurities (%) ([2]; storage at 40° C., 3 month) | Total amount of impurities (%) ([2]; storage at 25° C., 6 month) | Total amount of impurities (%) ([2]; storage at 40° C., 6 month) | Compound | Inhibitory activity against SGLT2 [1]
1 | – | – | – | – | – | – | – | – | CCc1ccc(Cc2ccc3c(c2)[C@]2(OC3)O[C@H](CO)[C@@H](O)[C@H](O)[C@H]2O)cc1 [Formula (B)] | excellent inhibitory activity
2 | maintained nearly constant for 3 months | 0.07 | 0.07 | 0.07 | 0.07 | 0.08 | – | – | CCc1ccc(Cc2ccc3c(c2)[C@]2(OC3)O[C@H](CO)[C@@H](O)[C@H](O)[C@H]2O)cc1 [Co-crystal with sodium acetate, 1,1-anhydro-1-C-[5-(4-ethylphenyl)methyl-2-(hydroxymethyl)phenyl]-β-D-glucopyranose] | –
3 | increased time-dependently | 0.35 | 0.66 | 0.35 | 0.62 | 0.92 | 0.87 | 1.46 | CCc1ccc(Cc2ccc3c(c2)[C@]2(OC3)O[C@H](CO)[C@@H](O)[C@H](O)[C@H]2O)cc1 [Amorphous form, 1,1-anhydro-1-C-[5-(4-ethylphenyl)methyl-2-(hydroxymethyl)phenyl]-β-D-glucopyranose] | –
4 | maintained nearly constant for 3 months | 0.08 | 0.08 | 0.08 | 0.08 | 0.08 | – | – | CCc1ccc(Cc2ccc3c(c2)[C@]2(OC3)O[C@H](CO)[C@@H](O)[C@H](O)[C@H]2O)cc1 [Co-crystal with potassium acetate, 1,1-anhydro-1-C-[5-(4-ethylphenyl)methyl-2-(hydroxymethyl)phenyl]-β-D-glucopyranose] | –
5 | maintained nearly constant for 6 months | 0.30 | 0.29 | 0.30 | 0.32 | 0.31 | 0.32 | 0.36 | CCc1ccc(Cc2ccc3c(c2)[C@]2(OC3)O[C@H](CO)[C@@H](O)[C@H](O)[C@H]2O)cc1 [Monohydrate crystal, 1,1-anhydro-1-C-[5-(4-ethylphenyl)methyl-2-(hydroxymethyl)phenyl]-β-D-glucopyranose] | –
